Data from the supplement of paper PMC10307832.

Key:
Assay in all cases: relative viability (nuclei count vs DMSO), 5 days (fraction); higher = more cells survive
NCI-H838 = test system: NCI-H838
How it was run: (§1)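 Five library-drug doses in √10 steps were combined with a fixed anchor-drug dose, or a single drug was given alone, by pin tool to lung cancer cell lines in 1536-well plates the day after seeding. Nuclei were stained and counted after 5 days. Relative viability is the nuclei count in treated wells over that in vehicle wells, taken as the median of duplicate plates.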

NCI-H1975 = test system: NCI-H1975
How it was run: as §1

NCI-H1734 = test system: NCI-H1734
How it was run: as §1

NCI-H1792 = test system: NCI-H1792
How it was run: as §1

NCI-H2405 = test system: NCI-H2405
How it was run: as §1

NCI-H23 = test system: NCI-H23
How it was run: as §1

NCI-H2126 = test system: NCI-H2126
How it was run: as §1

NCI-H1395 = test system: NCI-H1395
How it was run: as §1

ABC-1 = test system: ABC-1
How it was run: as §1

LK-2 = test system: LK-2
How it was run: as §1

A-427 = test system: A-427
How it was run: as §1

NCI-H460 = test system: NCI-H460
How it was run: as §1

NCI-H1651 = test system: NCI-H1651
How it was run: as §1

NCI-H3122 = test system: NCI-H3122
How it was run: as §1

LU99A = test system: LU99A
How it was run: as §1

HARA = test system: HARA
How it was run: as §1

ChaGo-K-1 = test system: ChaGo-K-1
How it was run: as §1

LCLC-97TM1 = test system: LCLC-97TM1
How it was run: as §1

LOU-NH91 = test system: LOU-NH91
How it was run: as §1

NCI-H2342 = test system: NCI-H2342
How it was run: as §1

What does the source list for `Nc1cccc2c1CN(C1CCC(=O)NC1=O)C2=O` (configuration not stated) [Lenalidomide] + NC(=O)Nc1cc(-c2cccc(F)c2)sc1C(=O)N[C@H]1CCCNC1 [AZD7762] (partner 0.2 µM)?
relative viability (NCI-H838; first compound 0.253 µM): 0.938; relative viability (NCI-H838; first compound 0.8 µM): 0.871; relative viability (NCI-H838; first compound 2.53 µM): 0.962; relative viability (NCI-H838; first compound 8 µM): 1.03; relative viability (NCI-H1975; first compound 0.253 µM): 0.8; relative viability (NCI-H1975; first compound 0.8 µM): 0.642; relative viability (NCI-H1975; first compound 2.53 µM): 0.776; relative viability (NCI-H1975; first compound 8 µM): 0.713; relative viability (NCI-H1734; first compound 0.253 µM): 0.586; relative viability (NCI-H1734; first compound 0.8 µM): 0.597; relative viability (NCI-H1734; first compound 2.53 µM): 0.618; relative viability (NCI-H1734; first compound 8 µM): 0.494; relative viability (NCI-H1792; first compound 0.253 µM): 0.894; relative viability (NCI-H1792; first compound 0.8 µM): 0.571; relative viability (NCI-H1792; first compound 2.53 µM): 0.971; relative viability (NCI-H1792; first compound 8 µM): 0.479; relative viability (NCI-H2405; first compound 0.253 µM): 0.681; relative viability (NCI-H2405; first compound 0.8 µM): 0.498; relative viability (NCI-H2405; first compound 2.53 µM): 0.815; relative viability (NCI-H2405; first compound 8 µM): 0.821; relative viability (NCI-H23; first compound 0.253 µM): 0.253; relative viability (NCI-H23; first compound 2.53 µM): 0.22; relative viability (NCI-H23; first compound 8 µM): 0.229; relative viability (NCI-H2126; first compound 0.253 µM): 0.973; relative viability (NCI-H2126; first compound 0.8 µM): 1.03; relative viability (NCI-H2126; first compound 2.53 µM): 1.05; relative viability (NCI-H2126; first compound 8 µM): 0.947; relative viability (NCI-H1395; first compound 0.253 µM): 0.405; relative viability (NCI-H1395; first compound 2.53 µM): 0.387; relative viability (NCI-H1395; first compound 8 µM): 0.376; relative viability (ABC-1; first compound 0.253 µM): 0.791; relative viability (ABC-1; first compound 0.8 µM): 0.59; relative viability (ABC-1; first compound 2.53 µM): 0.929; relative viability (ABC-1; first compound 8 µM): 0.856; relative viability (LK-2; first compound 0.253 µM): 0.511; relative viability (LK-2; first compound 0.8 µM): 0.366; relative viability (LK-2; first compound 2.53 µM): 0.33; relative viability (LK-2; first compound 8 µM): 0.206; relative viability (A-427; first compound 0.253 µM): 0.793; relative viability (A-427; first compound 0.8 µM): 0.878; relative viability (A-427; first compound 2.53 µM): 0.889; relative viability (A-427; first compound 8 µM): 0.887; relative viability (NCI-H460; first compound 0.253 µM): 0.578; relative viability (NCI-H460; first compound 0.8 µM): 0.567; relative viability (NCI-H460; first compound 2.53 µM): 0.596; relative viability (NCI-H460; first compound 8 µM): 0.754; relative viability (NCI-H1651; first compound 0.253 µM): 0.506; relative viability (NCI-H1651; first compound 0.8 µM): 0.436; relative viability (NCI-H1651; first compound 2.53 µM): 0.568; relative viability (NCI-H1651; first compound 8 µM): 0.44; relative viability (NCI-H3122; first compound 0.253 µM): 0.938; relative viability (NCI-H3122; first compound 0.8 µM): 1.03; relative viability (NCI-H3122; first compound 2.53 µM): 1.06; relative viability (NCI-H3122; first compound 8 µM): 0.966; relative viability (LU99A; first compound 0.253 µM): 0.311; relative viability (LU99A; first compound 0.8 µM): 0.341; relative viability (LU99A; first compound 2.53 µM): 0.397; relative viability (LU99A; first compound 8 µM): 0.257; relative viability (HARA; first compound 0.253 µM): 0.173; relative viability (HARA; first compound 2.53 µM): 0.296; relative viability (HARA; first compound 8 µM): 0.434; relative viability (ChaGo-K-1; first compound 0.253 µM): 0.916; relative viability (ChaGo-K-1; first compound 0.8 µM): 0.853; relative viability (ChaGo-K-1; first compound 2.53 µM): 1.02; relative viability (ChaGo-K-1; first compound 8 µM): 0.893; relative viability (LCLC-97TM1; first compound 0.253 µM): 0.304; relative viability (LCLC-97TM1; first compound 0.8 µM): 0.114; relative viability (LCLC-97TM1; first compound 2.53 µM): 0.364; relative viability (LCLC-97TM1; first compound 8 µM): 0.222; relative viability (LOU-NH91; first compound 0.253 µM): 0.781; relative viability (LOU-NH91; first compound 0.8 µM): 0.702; relative viability (LOU-NH91; first compound 2.53 µM): 0.766; relative viability (LOU-NH91; first compound 8 µM): 0.647; relative viability (NCI-H2342; first compound 0.253 µM): 0.494; relative viability (NCI-H2342; first compound 0.8 µM): 0.402; relative viability (NCI-H2342; first compound 2.53 µM): 0.529; relative viability (NCI-H2342; first compound 8 µM): 0.449
